In ChEMBL document CHEMBL6074718, “Discovery and biological evaluation of potent 2-trifluoromethyl acrylamide warhead-containing inhibitors of protein disulfide isomerase” (Eur J Med Chem, 2025):
Calls of active or inactive are those of the source. The rule behind the calls is not given here.

Legend:
[1] = target: T1, Protein disulfide-isomerase (Homo sapiens, UniProt P07237); test: Inhibition of recombinant PDI (unknown origin) preincubated for 1 hrs followed by bovine insulin addition and measured after 80 mins by absorbance based reductase assay
Target sequence in this assay (P07237 whole entry): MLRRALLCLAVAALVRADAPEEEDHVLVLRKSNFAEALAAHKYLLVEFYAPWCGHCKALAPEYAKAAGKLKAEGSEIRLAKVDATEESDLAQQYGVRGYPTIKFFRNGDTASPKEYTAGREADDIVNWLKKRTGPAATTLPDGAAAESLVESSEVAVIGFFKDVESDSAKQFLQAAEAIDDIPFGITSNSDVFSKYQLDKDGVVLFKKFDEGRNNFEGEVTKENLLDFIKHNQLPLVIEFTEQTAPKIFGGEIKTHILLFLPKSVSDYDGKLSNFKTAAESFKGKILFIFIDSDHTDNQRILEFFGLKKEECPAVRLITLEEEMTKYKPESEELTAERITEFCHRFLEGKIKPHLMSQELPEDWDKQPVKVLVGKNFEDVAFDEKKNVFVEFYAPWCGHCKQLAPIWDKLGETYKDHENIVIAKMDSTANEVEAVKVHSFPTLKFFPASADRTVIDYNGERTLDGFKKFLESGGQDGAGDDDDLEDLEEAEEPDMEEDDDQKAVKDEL

[2] = target: T1, Protein disulfide-isomerase; test: Inhibition of recombinant PDI (unknown origin) at 0.2 uM preincubated for 1 hrs and measured after 10 fold dilution by absorbance based analysis
Target sequence in this assay (P07237 18-508 limits assumed): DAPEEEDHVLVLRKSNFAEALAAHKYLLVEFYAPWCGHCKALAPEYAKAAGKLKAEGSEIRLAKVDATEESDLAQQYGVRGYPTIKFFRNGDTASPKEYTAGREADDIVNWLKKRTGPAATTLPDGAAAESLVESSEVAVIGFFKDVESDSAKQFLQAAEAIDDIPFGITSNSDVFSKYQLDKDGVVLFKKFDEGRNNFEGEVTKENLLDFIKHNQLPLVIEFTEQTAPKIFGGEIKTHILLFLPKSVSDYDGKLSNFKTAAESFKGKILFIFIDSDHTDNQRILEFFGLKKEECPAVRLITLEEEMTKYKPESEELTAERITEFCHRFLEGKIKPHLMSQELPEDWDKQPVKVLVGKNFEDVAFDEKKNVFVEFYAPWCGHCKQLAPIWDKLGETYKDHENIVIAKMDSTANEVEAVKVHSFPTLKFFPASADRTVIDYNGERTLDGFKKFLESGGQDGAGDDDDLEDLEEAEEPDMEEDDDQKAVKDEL

[3] = target: T2, Protein disulfide-isomerase A6 (Homo sapiens, UniProt Q15084); test: Inhibition of recombinant PDIA6 (unknown origin) preincubated for 1 hrs followed by bovine insulin addition and measured after 80 mins by absorbance based reductase assay
T2 sequence (Q15084 whole entry): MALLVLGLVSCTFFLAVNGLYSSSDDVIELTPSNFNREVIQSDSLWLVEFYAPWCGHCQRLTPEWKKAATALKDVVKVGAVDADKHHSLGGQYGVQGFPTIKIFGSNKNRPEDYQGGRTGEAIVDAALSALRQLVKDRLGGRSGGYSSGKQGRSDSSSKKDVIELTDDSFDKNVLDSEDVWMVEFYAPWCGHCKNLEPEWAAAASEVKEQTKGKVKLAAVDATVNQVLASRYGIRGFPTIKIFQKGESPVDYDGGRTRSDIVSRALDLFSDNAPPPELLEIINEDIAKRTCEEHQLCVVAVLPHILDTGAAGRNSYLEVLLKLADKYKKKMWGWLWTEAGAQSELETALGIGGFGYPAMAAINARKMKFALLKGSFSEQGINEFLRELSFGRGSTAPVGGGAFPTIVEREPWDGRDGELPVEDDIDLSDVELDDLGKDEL

[4] = Antiplatelet aggregation activity in human Platelet assessed as reduction in U46619-induced secretion of p-selectin at 5 uM preincubated for 3 mins followed by U46619 addition and measured after 5 mins by flow cytometric analysis relative to control; format: functional; parameters: scale not given: the % may be the effect or the level left; settings: time 8 min
[5] = target: T3, Protein disulfide-isomerase A3 (Homo sapiens, UniProt P30101); test: Inhibition of recombinant PDIA3 (unknown origin) preincubated for 1 hrs followed by bovine insulin addition and measured after 80 mins by absorbance based reductase assay
T3 sequence (P30101 whole entry): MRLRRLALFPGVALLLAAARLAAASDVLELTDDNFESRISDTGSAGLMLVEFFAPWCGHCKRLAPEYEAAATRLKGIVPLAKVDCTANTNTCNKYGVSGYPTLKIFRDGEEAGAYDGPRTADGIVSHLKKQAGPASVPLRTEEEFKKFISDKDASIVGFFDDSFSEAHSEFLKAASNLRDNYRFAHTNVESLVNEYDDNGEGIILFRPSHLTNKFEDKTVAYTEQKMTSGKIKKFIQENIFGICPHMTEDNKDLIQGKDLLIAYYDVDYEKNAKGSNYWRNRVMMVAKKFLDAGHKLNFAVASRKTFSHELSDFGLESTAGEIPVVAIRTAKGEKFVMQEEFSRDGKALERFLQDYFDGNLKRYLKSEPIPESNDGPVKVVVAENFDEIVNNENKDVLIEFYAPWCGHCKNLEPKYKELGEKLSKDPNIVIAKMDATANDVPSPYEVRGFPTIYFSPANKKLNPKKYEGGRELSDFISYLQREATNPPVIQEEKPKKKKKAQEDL

Blood [6] = test: Antithrombotic activity in citrated-human whole blood assessed as reduction in coverage area of thrombi on collagen-coated chamber at 5 uM incubated for 10 mins in presence of DiOC6(3) by fluorescence microscopic analysis relative to control; format: functional; parameters: scale not given: the % may be the effect or the level left
[7] = Antiplatelet aggregation activity in human Platelet assessed as inhibition of U46619- induced aggregation preincubated for 3 mins followed by U46619 addition by turbidimetric aggregometry
A549 = test: Antiproliferative activity against human A549 cells assessed as reduction in cell viability at 5 to 40 uM incubated for 24 hrs by MTT assay; format: functional, cell-based; settings: dose 5-40 µM
[8] = Antiplatelet aggregation activity in human Platelet assessed as inhibition of thrombin- induced aggregation preincubated for 3 mins followed by thrombin addition by turbidimetric aggregometry
[9] = target: T1, Protein disulfide-isomerase; test: Inhibition of PDI in human Platelet assessed as reduction in […] activation by measuring decrease in PAC-1 binding at 5 uM preincubated for 3 mins followed by U46619 addition and measured after 5 mins by flow cytometric analysis; format: cell-based; settings: time 8.0 min
Target sequence in this assay (P07237 18-508 limits assumed): as the sequence (P07237 18-508 limits assumed) above

HepG2 = test: Antiproliferative activity against human HepG2 cells assessed as reduction in cell viability at 5 to 40 uM incubated for 24 hrs by MTT assay; format: functional, cell-based; settings: dose 5-40 µM
[10] = Antiplatelet aggregation activity in human Platelet assessed as inhibition of collagen- induced aggregation preincubated for 3 mins followed by collagen addition by turbidimetric aggregometry
HUVEC = test: Cytotoxicity against HUVEC cells assessed as reduction in cell viability at 5 to 40 uM incubated for 24 hrs by MTT assay; format: toxicity, cell-based; settings: human, dose 5-40 µM
MDA-MB-231 = test: Antiproliferative activity against human MDA-MB-231 cells assessed as reduction in cell viability at 5 to 40 uM incubated for 24 hrs by MTT assay; format: functional, cell-based; settings: dose 5-40 µM
Blood [11] = test: Antithrombotic activity in citrated-human whole blood assessed as reduction in coverage area of thrombi on collagen-coated chamber at 200 uM incubated for 10 mins in presence of DiOC6(3) by fluorescence microscopic analysis relative to control; format: functional; parameters: scale not given: the % may be the effect or the level left
Platelet [12] = test: Antiplatelet aggregation activity in human Platelet assessed as inhibition of thrombin- induced aggregation at 50 to 200 uM preincubated for 3 mins followed by thrombin addition by turbidimetric aggregometry; format: functional, cell-based; settings: dose 50-200 µM
Blood [13] = test: Antithrombotic activity in citrated-human whole blood assessed as reduction in coverage area of thrombi on collagen-coated chamber at 100 uM incubated for 10 mins in presence of DiOC6(3) by fluorescence microscopic analysis relative to control; format: functional; parameters: scale not given: the % may be the effect or the level left
Platelet [14] = test: Antiplatelet aggregation activity in human Platelet assessed as inhibition of U46619- induced aggregation at 50 to 200 uM preincubated for 3 mins followed by U46619 addition by turbidimetric aggregometry; format: functional, cell-based; settings: dose 50-200 µM
[15] = target: T1, Protein disulfide-isomerase; test: Irreversible inhibition of recombinant PDI (unknown origin) at 4 uM preincubated for 1 hrs and measured after 10 fold dilution by absorbance based analysis
Target sequence in this assay (P07237 18-508 limits assumed): as the sequence (P07237 18-508 limits assumed) above

IC50 [1]	SMILES	also measured
810 nM	C=C(C(=O)Nc1ccc(OCc2ccccc2)c(OC)c1)C(F)(F)F	
> 40000 nM	C=C(F)C(=O)Nc1cc(OC)c(OC)cc1C(=O)OC	
580 nM	C=C(C(=O)Nc1cc(OC)c(OC)c(OC)c1)C(F)(F)F	
680 nM	C=C(C(=O)Nc1ccc(C(F)(F)F)cc1)C(F)(F)F	
> 40000 nM	COC(=O)c1cc(OC)c(OC)cc1NC(=O)CCl	
1100 nM	C=CS(=O)(=O)Oc1cc(OC)c(OC)cc1C(=O)OC	
> 40000 nM	COC(=O)c1cc(OC)c(OC)cc1NC(=O)C1CO1 (stereo not given)	
1230 nM	C=C(C(=O)Nc1ccc(OCCC)c(OC)c1)C(F)(F)F	
870 nM	C=C(C(=O)Nc1ccc(C(C)(C)C)cc1)C(F)(F)F	
> 40000 nM	COC(=O)/C=C/C(=O)Nc1cc(OC)c(OC)cc1C(=O)OC	
560 nM	C=C(C(=O)Nc1ccc(Cc2ccccc2)cc1)C(F)(F)F	
19100 nM	C=CS(=O)(=O)Nc1cc(OC)c(OC)cc1C(=O)OC	
480 nM	C=C(C(=O)Nc1ccc(C(=O)c2ccccc2)cc1)C(F)(F)F	inhibition [2]: Not active; Compound Exhibited Reversible Binding Mode With Pdi; IC50 [3]: 7100 nM; Activity [4]: 52%; IC50 [5]: 1520 nM; Activity (Blood [6]): 36%; IC50 [7]: 3500 nM; Activity (A549): inactive; IC50 [8]: 25500 nM; inhibition [9]: Active; Activity (HepG2): inactive; IC50 [10]: 13000 nM; Activity (HUVEC): Non-toxic; Activity (MDA-MB-231): inactive
840 nM	C=C(C(=O)Nc1ccc(N(CC)CC)cc1)C(F)(F)F	
2910 nM	C=C(C(=O)Nc1ccc2c(c1)OCO2)C(F)(F)F	
1600 nM	C#CC(=O)Nc1cc(OC)c(OC)cc1C(=O)OC	
	CC(=O)Oc1ccccc1C(=O)O [ASPIRIN]	Activity (Blood [11]): 46%; Activity (Platelet [12]): inactive; Activity (Blood [13]): 21%; IC50 [10]: 74500 nM; Activity (Platelet [14]): inactive
12400 nM	C#CC(=O)N(c1ccc(OC)c(OC)c1)C(C(=O)NCC(=O)OCC)c1cccs1 (stereo not given)	IC50 [3]: > 40000 nM; IC50 [5]: 28100 nM; inhibition [15]: Active
1630 nM	C=C(C(=O)Nc1ccc(-c2ccccc2)cc1)C(F)(F)F	
> 40000 nM	C=CC(=O)Nc1cc(OC)c(OC)cc1C(=O)OC	
3000 nM	C=C(C(=O)Nc1ccc(OC)c(OC)c1)C(F)(F)F	
1210 nM	C=C(C(=O)Nc1ccc(CN2CCOCC2)cc1)C(F)(F)F	
1620 nM	C=C(C(=O)Nc1ccc(OCC)c(OC)c1)C(F)(F)F	
> 40000 nM	COC(=O)c1cc(OC)c(OC)cc1NC(=O)C12CC1C2 (stereo not given)	
2200 nM	C=C(C(=O)Nc1cc(OC)c(OC)cc1C(=O)OC)C(F)(F)F	
